The test system of one experiment is gastric LM-MPs. The experiment in a line: NO release from gastric LM-MP incubated with DAHP. The settings on record: DAHP 10 mM, 48 hours, healthy female rat gastric LM-MP. Here is the method:
(§1) Gastric LM-MPs were incubated for 48 hrs in the presence or the absence of DAHP (10 mM) and nNOS dimerization (FIG. 9A-9B) in tissues and NO release (FIG. 9C) in the media were assessed. (n=3).
Gastric LM-MPs were incubated for 24 hours in DMEM supplemented with 2% neurobasal medium (NB27) and 1% antibiotics. The concentration of NO (micromoles/mg tissue) was measured using readily available NO kit (Cayman corporation). […] The present invention contemplates examining whether supplementation of BH4 and female sex hormones restores reduced NO release in diabetic female gastric LM-MP tissues.
(§2) The present invention examined whether treatment with DAHP in vitro uncoupled gastric nNOS dimerization and NO release in healthy female rats. Gastric longitudinal muscle-myenteric plexus (LM-MP) were incubated for 48 hours in the presence or absence of DHAP (10 mM). It was observed that inhibition of BH4 biosynthesis with DAHP decreased both nNOS dimerization (FIGS. 9A-9B) and NO release (FIG. 9C). These additional data further support the hypothesis that impaired biosynthesis of gastric BH4 accounts for the decrease in nNOS activity and nitrergic relaxation in female diabetic gastroparesis.

In another experiment the test system is nNOS. The experiment in a line: nNOS dimerization in gastric LM-MP incubated in vitro. The settings on record: DAHP 10 mM, 48 hours, healthy female rat gastric LM-MP. Here is the method: as §1, §2
A further experiment has as its system gastric tissues. Put plainly: Nitrergic relaxation of gastric tissues after in vitro incubation (organ bath). The following applies: DAHP 10 mM, 3 hours incubation, female control gastric tissues, n=2. More on the design: species or system rat.

Experimental findings from patent publication US9486456B2, “Treatment of esophageal motility disorder using sepiapterin, tetrahydrobiopterin and derivatives thereof” (The Board of Regents of the University of Texas System, priority 2006, dated 2016) are described below.

In the case of `Nc1cc(O)nc(N)n1` [DAHP, 2,4-diamino-6-hydroxypyrimidine], in the experiment on gastric LM-MPs, the “Effect on NO release” value is “decreased”. Also, in the experiment with nNOS, the “Effect on nNOS dimerization” value is “decreased”. Moreover, the “Effect on nitrergic relaxation” value in the experiment with gastric tissues is reported as “inhibited”.
